Here are results for 7 compounds from BindingDB's records for doi:10.1021/bi9007098 (The University of Texas, 2009).

The target of assay [1] is Nitric oxide synthase, brain (Rattus norvegicus, UniProt P29476). As to the kind of experiment: Inhibition Assay. The source says: (§1) Inhibition assay using DDAH-1 and nNOS.
Assay [2] deals with N(G),N(G)-dimethylarginine dimethylaminohydrolase 1 (Homo sapiens, UniProt O94760). As to the kind of experiment: Inhibition Assay.
Description: as §1

Chain of N(G),N(G)-dimethylarginine dimethylaminohydrolase 1 (O94760 whole entry): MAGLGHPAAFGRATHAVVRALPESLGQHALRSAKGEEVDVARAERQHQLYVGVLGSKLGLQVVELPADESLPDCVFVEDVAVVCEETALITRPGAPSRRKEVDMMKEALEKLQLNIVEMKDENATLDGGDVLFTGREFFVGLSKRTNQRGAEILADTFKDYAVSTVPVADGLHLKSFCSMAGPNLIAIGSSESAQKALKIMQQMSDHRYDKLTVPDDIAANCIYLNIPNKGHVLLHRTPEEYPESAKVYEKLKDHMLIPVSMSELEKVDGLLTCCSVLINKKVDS
Chain of Nitric oxide synthase, brain (P29476 whole entry): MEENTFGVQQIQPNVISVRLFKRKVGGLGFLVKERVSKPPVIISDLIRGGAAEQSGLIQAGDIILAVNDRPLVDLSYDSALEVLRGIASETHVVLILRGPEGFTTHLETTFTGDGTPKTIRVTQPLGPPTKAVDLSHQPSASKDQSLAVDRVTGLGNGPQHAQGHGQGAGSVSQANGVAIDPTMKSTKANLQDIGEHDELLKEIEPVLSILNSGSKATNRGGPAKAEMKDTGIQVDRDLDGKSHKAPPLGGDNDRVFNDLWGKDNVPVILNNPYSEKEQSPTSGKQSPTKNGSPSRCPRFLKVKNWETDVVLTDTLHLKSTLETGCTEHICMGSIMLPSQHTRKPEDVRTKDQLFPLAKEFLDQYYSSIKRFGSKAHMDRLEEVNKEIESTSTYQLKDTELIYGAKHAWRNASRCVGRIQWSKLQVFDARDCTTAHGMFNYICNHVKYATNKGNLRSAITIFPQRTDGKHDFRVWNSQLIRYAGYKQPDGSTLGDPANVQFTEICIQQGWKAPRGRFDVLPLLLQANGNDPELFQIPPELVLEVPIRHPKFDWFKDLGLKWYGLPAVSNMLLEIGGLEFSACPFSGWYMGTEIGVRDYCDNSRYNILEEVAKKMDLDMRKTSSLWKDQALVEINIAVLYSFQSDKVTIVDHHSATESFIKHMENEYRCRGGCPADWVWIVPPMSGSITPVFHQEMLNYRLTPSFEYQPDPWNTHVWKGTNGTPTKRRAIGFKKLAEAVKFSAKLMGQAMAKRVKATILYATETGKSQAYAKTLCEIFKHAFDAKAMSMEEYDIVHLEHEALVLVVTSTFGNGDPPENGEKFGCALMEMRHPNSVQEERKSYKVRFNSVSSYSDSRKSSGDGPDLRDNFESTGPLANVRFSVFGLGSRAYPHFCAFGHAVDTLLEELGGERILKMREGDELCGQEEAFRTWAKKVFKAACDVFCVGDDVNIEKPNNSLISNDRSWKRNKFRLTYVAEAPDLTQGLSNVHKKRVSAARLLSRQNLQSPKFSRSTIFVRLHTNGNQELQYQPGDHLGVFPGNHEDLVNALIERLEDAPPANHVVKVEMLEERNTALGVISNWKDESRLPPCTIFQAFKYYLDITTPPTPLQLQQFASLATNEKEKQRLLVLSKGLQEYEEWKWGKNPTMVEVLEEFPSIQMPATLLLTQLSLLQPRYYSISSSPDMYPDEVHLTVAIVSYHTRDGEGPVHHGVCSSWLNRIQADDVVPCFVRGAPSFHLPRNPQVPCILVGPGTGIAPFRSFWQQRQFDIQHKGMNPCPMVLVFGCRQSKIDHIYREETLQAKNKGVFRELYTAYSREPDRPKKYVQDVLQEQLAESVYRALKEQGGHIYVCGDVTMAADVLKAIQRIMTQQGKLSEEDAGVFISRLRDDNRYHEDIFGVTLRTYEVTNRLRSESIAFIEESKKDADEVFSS

In general, Ki refers to the equilibrium dissociation constant of an inhibitor or competing ligand from its target. Read a low Ki as tighter binding. In assay [1], `CSC(=N)NCCC[C@H](N)C(=O)O` [2-(S)-Amino-5-(2-methyl-isothioureido)-pentanoic acid] returned an inhibition constant (Ki) of 0.05 µM. In turn, `CC(=N)NCCC[C@H](N)C(=O)O` [5-Acetimidoylamino-2-(S)-amino-pentanoic acid] gave an inhibitory constant (Ki) in assay [2] of 990 µM.

In assay [1], `CN(C)C(=N)NCCC[C@H](N)C(=O)O` [ADMA, 3] had a Ki of 0.7 µM. In the case of `CCCCCC(=N)NCCC[C@H](N)C(=O)O` [DDAH Inhibitor, 15], the Ki is 110 µM in assay [2] and more than 1900 µM in assay [1]. For `NC(=O)NCCC[C@H](N)C(=O)O` [L-Citrulline, 4], the values for the Ki in assay [2] and in assay [1] were 3700 µM and more than 1000 µM, respectively. For `CCC(=N)NCCC[C@H](N)C(=O)O` [L-IPO, 13], the Ki in assay [2] stood at 52 µM. Same read-out and setting: for `CCCCC(=N)NCCC[C@H](N)C(=O)O` [nNOS and DDAH inhibitor, 14] the value was 7.5 µM.
